As a reminder, the mortality is the percentage killed. Lower therefore signals a weak lethal effect.

For 1 molecule, MIC, Symptoms and mortality results are on record in patent US5525627A, “Esters of acyl carnitines with long-chain aliphatic alcohols and pharmaceutical compositions containing same having antimycotic activity” (Sigma-Tau Industrie Farmaceutiche Riunite S.p.A., priority 1992, dated 1996).

Data set [1] relates to yeast-like fungi. Briefly: MIC / MFC for yeast-like fungi, all strains. It is filed as cell-based, Candida, Cryptococcus, Saccharomyces, Torulopsis. The conditions noted are these: versus susceptible strains; read-out: Mean MIC values. In a few lines:
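Candida, Cryptococcus, Saccharomyces and Torulopsis strains tested by broth microdilution in Yeast Nitrogen Base with 0.15% asparagine and 1.0% glucose, buffered with 0.165 M MOPS; final inoculum about 5.0×10^4 CFU/ml from overnight (Cryptococcus 48-hour) Sabouraud cultures. MFC from spot-transfer of wells without visible growth onto Sabouraud agar.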

In data set [2] the test system is Candida pseudotropicalis (EC 1). Briefly: MIC for yeast and yeast-like strains. It counts as cell-based. Particulars: Kluyveromyces marxianus; 48 hours, 35° C.; read-out: Minimal Inhibitory Concentration (MIC). A digest of the protocol: (§1)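 Cells were grown overnight in Sabouraud broth, or 48 h for Cryptococcus, adjusted against a McFarland standard to ~5.0×10^6 CFU/ml, then diluted 1:50. The suspension was combined with an equal volume of test substance in MOPS-buffered (0.165 M) Yeast Nitrogen Base containing asparagine and glucose.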

Data set [3] has as its system Candida albicans (ATCC 2091). The data set is described as follows: MIC for yeast and yeast-like strains. It is filed as cell-based. The conditions noted are these: ATCC2091, 48 hours, 35° C., read-out: Minimal Inhibitory Concentration (MIC). In a few lines: as §1
Data set [4] relates to Candida albicans (562). Briefly: MIC for yeast and yeast-like strains. It is filed as cell-based. The conditions noted are these: 48 hours, 35° C., read-out: Minimal Inhibitory Concentration (MIC). A digest of the protocol: as §1
Data set [5] concerns Candida tropicalis (5705). Briefly: MIC for yeast and yeast-like strains. It counts as cell-based. Particulars: 48 hours, 35° C., read-out: Minimal Inhibitory Concentration (MIC). A digest of the protocol:
as §1

The subject of data set [6] is Cryptococcus neoformans (4711). The data set is described as follows: MIC for yeast and yeast-like strains. It counts as cell-based. The conditions noted are these: 48 hours, 35° C., read-out: Minimal Inhibitory Concentration (MIC). In a few lines:
as §1

Data set [7] concerns Candida albicans (A 54). Briefly: MIC for yeast and yeast-like strains. Particulars: 48 hours, 35° C., read-out: Minimal Inhibitory Concentration (MIC). It is filed as cell-based. A digest of the protocol: as §1
Data set [8] concerns Torulopsis candida (D.S.). The data set is described as follows: MIC for yeast and yeast-like strains. It is filed as cell-based. Particulars: Suzukiozyma candida; 48 hours, 35° C.; read-out: Minimal Inhibitory Concentration (MIC). A digest of the protocol: as §1
In data set [9] the test system is Candida albicans (Ca 2). The data set is described as follows: MIC for yeast and yeast-like strains. It counts as cell-based. Particulars: 48 hours, 35° C., read-out: Minimal Inhibitory Concentration (MIC). In a few lines: as §1
Data set [10] has as its system Saccharomyces cerevisiae (ATCC 7752). Briefly: MIC for yeast and yeast-like strains. Particulars: ATCC7752, 48 hours, 35° C., read-out: Minimal Inhibitory Concentration (MIC). It counts as cell-based. In a few lines: as §1
For data set [11], the system named is filamentous fungi. The data set is described as follows: MIC / MFC for filamentous fungi, all strains. It is filed as cell-based, Aspergillus, Fusarium, Mucor, Penicillium. Particulars: versus susceptible strains; read-out: Mean MIC values. In a few lines:
(§2)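 Inoculum was conidia from 72-hour Sabouraud agar cultures, washed off with Sabouraud medium plus Tween 80 (one drop per 10 ml) and used at 5.0×10^4 CFU/ml. The procedure followed the yeast-like fungi method, and MIC and MFC were read as reported previously.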

Data set [12] concerns mice. Briefly: Assessment of behaviour and mortality in mice (Irwin's method). The arrangement: species or system mice (male Crl:(CD-1)(ICR)BR). Particulars: mouse, in vivo, po. How it is done:
(§3) ASSESSMENT OF BEHAVIOUR AND MORTALITY IN MICE
(§4) The assessment of normal behaviour in mice was carried out following S. Irwin's method (Psychopharmacologia, 13, 222 [1968]). This method allows alterations in some behavioural, neurophysiologic and neurovegetative parameters to be detected, which are directly observable by the researcher. The study was conducted using male Crl:(CD-1)(ICR)BR mice (Charles River-Italy) weighing 22-25 g. following oral administration of the compounds suspended in carboxymethylcellulose (0.5% by weight in H2 O) to groups of 4 animals/dose.
(§5) The animals were continously kept under observation for five hours following treatment and twice a day in the subsequent five days. Mortality was also observed during the overall test period.

Test in data set [13]: as above
The arrangement: species or system mice (male Crl:(CD-1)(ICR)BR). The conditions noted are these: mouse, in vivo; oral, dose 1000 (unit inferred), 4 animals/dose. How it is done:
as §3, §4, §5

Data set [14] relates to Candida albicans (PG). Briefly: MIC and MFC for yeast and yeast-like strains. It is filed as cell-based. The conditions noted are these: 48 hours, 35° C., read-out: Minimal Inhibitory Concentration (MIC). How it is done:
The following strains were used (the number of strains is in brackets): Candida (13); Criptococcus (2); Saccharormyces (1); Torulopsis (1).
Yeast Nitrogen Base supplemented with 0.15% asparagine and 1.0% glucose (as carbon source) was the medium utilized in the assays.
This medium was buffered with 0.165 M 2-(N-morpholino) propane sulfonic acid (MOPS), a non-chelating buffer.
Antimicrob. Agents Cheroother. Aug. 34.8:1542-1545).
The inoculum was prepared from an overnight broth culture (a 48-hour culture only for Cryptococcus) in Sabouraud broth and appropriately diluted to yield a final suspension containing approximately 5.0×10^6 Colony Forming Units per ml (CFU/ml), when compared to the Mc Farland's standard control (BRAY W. E., Clinical Laboratory Methods, 5th Ed. C. V. MOSBY, St. Louis, Mo, 1957).
After further diluting (1:50), a […] volume of such fungal suspensions and an equal volume of the substance solutions were distributed into each well of a microtiter plate (96 wells, round bottom). Such a procedure eventually allowed for an "in vitro" antimycotic activity assay utilizing final fungal inocula of approximately 5.0×10^4 CFU/ml.
The minimal fungicidal concentration was evaluated by spot-transferring onto Petri dishes, containing Sabouraud agar, 0.01-ml volumes of all the samples showing no visible fungal growth.

Data set [15] concerns Aspergillus fumigatus (C/1). The data set is described as follows: MIC for filamentous fungi. It is filed as cell-based. The conditions noted are these: read-out: Minimal Inhibitory Concentration (MIC). In a few lines:
as §2

In data set [16] the test system is Aspergillus fumigatus (2/A). The data set is described as follows: MIC for filamentous fungi. It counts as cell-based. Particulars: read-out: Minimal Inhibitory Concentration (MIC). A digest of the protocol:
as §2

Data set [17] relates to Mucor mucedo (ATCC 7941). Briefly: MIC for filamentous fungi. It counts as cell-based. Particulars: ATCC7941, read-out: Minimal Inhibitory Concentration (MIC). In a few lines: as §2
For data set [18], the system named is Aspergillus fumigatus (ATCC 28212). Briefly: MIC for filamentous fungi. It is filed as cell-based. Particulars: ATCC28212, read-out: Minimal Inhibitory Concentration (MIC). A digest of the protocol:
as §2

Data set [19] relates to Aspergillus fumigatus (1/A). The data set is described as follows: MIC for filamentous fungi. It is filed as cell-based. The conditions noted are these: read-out: Minimal Inhibitory Concentration (MIC). A digest of the protocol:
as §2

Data set [20] has as its system Aspergillus niger (ATCC 16404). Briefly: MIC for filamentous fungi. Particulars: ATCC16404, read-out: Minimal Inhibitory Concentration (MIC). It is filed as cell-based. In a few lines:
as §2

Take `CCCCCCCCCCCOC(=O)C[C@H](C[N+](C)(C)C)OC(=O)C(C)C` [ST 712, ISOBUTYRYL-L-CARNITINE UNDECYL ESTER CHLORIDE]: the MIC in [1] stood at 9.37 µg/mL; in data set [2], 12.5 µg/mL; in [3], 12.5 µg/mL; in data set [4] it was 12.5 µg/mL; in data set [5], 3.12 µg/mL; in [6], 3.12 µg/mL. The MIC in data set [7] is 12.5 µg/mL; in data set [8], 12.5 µg/mL; in data set [9] it was 6.25 µg/mL; in data set [10] it was 6.25 µg/mL; in data set [11], 30 µg/mL; in [14] it was 12.5 µg/mL. The MIC amounted to 25 µg/mL in data set [15]; 25 µg/mL in data set [16]; 50 µg/mL in [17]; 25 µg/mL in data set [18]; 25 µg/mL in data set [19]; 50 µg/mL in data set [20]. Further, the Symptoms result in data set [12] was “NONE”. The molecule further had a mortality at 120 h in [13] of 0%.
